One experiment has as its target T1, Axl (Homo sapiens, UniProt P30530).
T1 construct: endogenous in cells; host or cells: HeLa cells
T1 sequence (P30530 26-894): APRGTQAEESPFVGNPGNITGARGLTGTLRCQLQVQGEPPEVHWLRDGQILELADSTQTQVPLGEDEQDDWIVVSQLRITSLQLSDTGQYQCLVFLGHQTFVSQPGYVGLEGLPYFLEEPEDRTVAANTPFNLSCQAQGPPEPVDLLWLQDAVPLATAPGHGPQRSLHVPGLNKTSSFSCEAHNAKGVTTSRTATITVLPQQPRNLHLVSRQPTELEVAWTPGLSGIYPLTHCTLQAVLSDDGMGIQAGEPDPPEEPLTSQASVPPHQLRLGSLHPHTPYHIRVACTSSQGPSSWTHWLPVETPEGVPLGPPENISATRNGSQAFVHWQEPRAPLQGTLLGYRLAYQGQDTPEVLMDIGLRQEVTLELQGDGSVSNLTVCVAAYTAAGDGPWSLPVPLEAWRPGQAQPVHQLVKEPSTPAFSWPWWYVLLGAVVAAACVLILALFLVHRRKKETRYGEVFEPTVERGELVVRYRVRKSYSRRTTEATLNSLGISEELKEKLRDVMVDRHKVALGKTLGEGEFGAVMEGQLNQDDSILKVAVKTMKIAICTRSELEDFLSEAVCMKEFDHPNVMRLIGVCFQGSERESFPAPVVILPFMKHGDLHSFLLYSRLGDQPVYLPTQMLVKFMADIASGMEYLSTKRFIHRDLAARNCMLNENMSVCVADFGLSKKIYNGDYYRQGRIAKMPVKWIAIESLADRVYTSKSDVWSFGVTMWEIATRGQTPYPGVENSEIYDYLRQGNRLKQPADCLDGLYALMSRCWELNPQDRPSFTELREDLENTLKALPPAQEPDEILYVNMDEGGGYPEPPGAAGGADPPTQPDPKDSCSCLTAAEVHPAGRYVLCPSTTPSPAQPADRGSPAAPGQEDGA
The experiment can be described thus: Phospho-Akt in-cell Western assay (inhibition of Axl activity). The format is cell-based. The following applies: Table 2; Hela cells, Axl antibody cross-linking stimulation, phospho-Akt chemiluminescence. Put shortly: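 HeLa cells on poly-L-lysine, starved 24 h in 0.5% FCS DMEM with Axl/Fc 500 ng/mL, pre-treated with compound 1 h at 37° C. Axl stimulated 5 min by anti-Axl/anti-mouse antibody cross-linking. Fixed cells probed with anti-phospho-Akt and HRP secondary, chemiluminescence read.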
In the case of `CC(C)(C)c1ccc(C(=O)n2nc(N)nc2Nc2ccc(OCCN3CCCC3)cc2)cc1` [compound 303, 3-amino-1-(4-(tert-butyl)phenyl)carbonyl-5-[4-[2-(pyrrolidin-1-yl)ethoxy]phenylamino]-1H-1,2,4-triazole], the IC50 fell in the range of 1000 to 10000 nM.
The same measure, in the same setting: the figure for `Nc1nc(Nc2ccc(OCCN3CCCC3)c(F)c2)n(C(=O)c2ccc(N3CCOCC3)cc2)n1` [compound 304, 3-amino-1-(4-(morpholin-4-yl)phenyl)carbonyl-5-[3-fluoro-4-[2-(pyrrolidin-1-yl)ethoxy]phenylamino]-1H-1,2,4-triazole] is 10000 to 20000 nM.

The experiment is the same for the next values; noted with them: Table 3; Hela cells, Axl antibody cross-linking stimulation, phospho-Akt chemiluminescence.
`Nc1nc(Nc2ccc(OCCN3CCCC3)c(F)c2)nn1C(=O)c1ccc2cc[nH]c2c1` [compound 309, 5-amino-1-(1H-indol-6-yl)carbonyl-3-[3-fluoro-4-[2-(pyrrolidin-1-yl)ethoxy]phenylamino]-1H-1,2,4-triazole] came in with an IC50 of less than 1000 nM.
Same read-out and setting: with `Nc1nc(Nc2ccc(OCCN3CCCC3)cc2)nn1C(=O)c1csnn1` [compound 312, 5-amino-1-(1,2,3-thiadiazol-4-yl)carbonyl-3-[4-[2-(pyrrolidin-1-yl)ethoxy]phenylamino]-1H-1,2,4-triazole] the figure was greater than 20000 nM; with `COc1cc(Nc2nc(N)n(C(=O)c3ccc4cc[nH]c4c3)n2)ccc1OCCN1CCCC1` [compound 318, 5-amino-1-(1H-indol-6-yl)carbonyl-3-[3-methoxy-4-[2-(pyrrolidin-1-yl)ethoxy]phenylamino]-1H-1,2,4-triazole], less than 1000 nM; with `Nc1nc(Nc2ccc(OCCN3CCCCCC3)cc2)nn1C(=O)c1ccc2cc[nH]c2c1` [compound 323, 5-amino-1-(1H-indol-6-yl)carbonyl-3-[4-[2-(azepan-1-yl)ethoxy]phenylamino]-1H-1,2,4-triazole], less than 1000 nM.

Staying with this experiment, now noted: Table 7; Hela cells, Axl antibody cross-linking stimulation, phospho-Akt chemiluminescence.
In turn, `Nc1nc(Nc2ccc(OCCN3CCCC3)cc2)nn1C(=S)Nc1c(F)cc(F)cc1F` [compound 325, 5-amino-N-(2,4,6-trifluorophenyl)-3-[4-[2-(pyrrolidin-1-yl)ethoxy]phenylamino]-1H-1,2,4-triazole-1-carbothioamide] showed an IC50 of 1000 to 10000 nM.
`Nc1nc(Nc2ccc(OCCN3CCCC3)cc2)nn1C(=S)Nc1c(F)cccc1F` [compound 326, 5-amino-N-(2,6-difluorophenyl)-3-[4-[2-(pyrrolidin-1-yl)ethoxy]phenylamino]-1H-1,2,4-triazole-1-carbothioamide] came in with an IC50 of less than 1000 nM.

Still in this experiment, the particulars now being: inhibition of Axl activity, phospho-Akt in-cell Western assay; Table 1.
Consider `CC(C)(C)Oc1ccc(C(=O)n2nc(Nc3ccc(OCCN4CCCC4)c(F)c3)nc2N)cc1` [compound 305, 5-amino-1-(4-(tert-butoxy)phenyl)carbonyl-3-[3-fluoro-4-[2-(pyrrolidin-1-yl)ethoxy]phenylamino]-1H-1,2,4-triazole], for which the IC50 was less than 1000 nM.
On the same count and under the same terms, the figure for `Nc1nc(Nc2ccc(OCCN3CCCC3)c(F)c2)nn1C(=O)c1ccc(-c2csnn2)cc1` [compound 306, 5-amino-1-(4-(1,2,3-thiadiazol-4-yl)phenyl)carbonyl-3-[3-fluoro-4-[2-(pyrrolidin-1-yl)ethoxy]phenylamino]-1H-1,2,4-triazole] is less than 1000 nM; for `CC(C)Oc1ccc(C(=O)n2nc(Nc3ccc(OCCN4CCCC4)c(F)c3)nc2N)cc1` [compound 307, 5-amino-1-(4-(iso-propoxy)phenyl)carbonyl-3-[3-fluoro-4-[2-(pyrrolidin-1-yl)ethoxy]phenylamino]-1H-1,2,4-triazole] it is less than 1000 nM; for `Nc1nc(Nc2ccc(OCCN3CCCC3)c(F)c2)nn1C(=O)c1ccccc1` [compound 308, 5-amino-1-(phenyl)carbonyl-3-[3-fluoro-4-[2-(pyrrolidin-1-yl)ethoxy]phenylamino]-1H-1,2,4-triazole] it is less than 1000 nM.
On the same count and under the same terms, the figure for `Nc1nc(Nc2ccc(OCCN3CCCC3)cc2)nn1C(=O)c1cccc(-c2nccs2)c1` [compound 310, 5-amino-1-(3-(thiazol-2-yl)phenyl)carbonyl-3-[4-[2-(pyrrolidin-1-yl)ethoxy]phenylamino]-1H-1,2,4-triazole] is less than 1000 nM; for `Nc1nc(Nc2ccc(OCCN3CCCC3)cc2)nn1C(=O)c1ccc(-c2cccs2)cc1` [compound 311, 5-amino-1-(4-(thien-2-yl)phenyl)carbonyl-3-[4-[2-(pyrrolidin-1-yl)ethoxy]phenylamino]-1H-1,2,4-triazole] it is less than 1000 nM; for `Nc1nc(Nc2ccc(OCCN3CCCC3)cc2)nn1C(=O)c1cccc(-c2cccs2)c1` [compound 313, 5-amino-1-(3-(thien-2-yl)phenyl)carbonyl-3-[4-[2-(pyrrolidin-1-yl)ethoxy]phenylamino]-1H-1,2,4-triazole] it is less than 1000 nM.
Still for that read-out and setting: with `Nc1nc(Nc2ccc(OCCN3CCCC3)cc2)nn1C(=O)c1ccc(-c2ccsc2)cc1` [compound 314, 5-amino-1-(4-(thien-3-yl)phenyl)carbonyl-3-[4-[2-(pyrrolidin-1-yl)ethoxy]phenylamino]-1H-1,2,4-triazole] the figure was less than 1000 nM; with `COc1cc(Nc2nc(N)n(C(=O)c3ccc(C(C)(C)C)cc3)n2)ccc1OCCN1CCCC1` [compound 315, 5-amino-1-(4-(tert-butyl)phenyl)carbonyl-3-[3-methoxy-4-[2-(pyrrolidin-1-yl)ethoxy]phenylamino]-1H-1,2,4-triazole], less than 1000 nM; with `COc1cc(Nc2nc(N)n(C(=O)c3ccc(OC(C)C)cc3)n2)ccc1OCCN1CCCC1` [compound 316, 5-amino-1-(4-(iso-propoxy)phenyl)carbonyl-3-[3-methoxy-4-[2-(pyrrolidin-1-yl)ethoxy]phenylamino]-1H-1,2,4-triazole], less than 1000 nM.
`COc1cc(Nc2nc(N)n(C(=O)c3ccc(OC(C)(C)C)cc3)n2)ccc1OCCN1CCCC1` [compound 317, 5-amino-1-(4-(tert-butoxy)phenyl)carbonyl-3-[3-methoxy-4-[2-(pyrrolidin-1-yl)ethoxy]phenylamino]-1H-1,2,4-triazole] came in with an IC50 of less than 1000 nM.
Still for that read-out and setting: the figure for `COc1cc(Nc2nc(N)n(C(=O)c3ccc(-c4csnn4)cc3)n2)ccc1OCCN1CCCC1` [compound 319, 5-amino-1-(4-(1,2,3-thiadiazol-4-yl)phenyl)carbonyl-3-[3-methoxy-4-[2-(pyrrolidin-1-yl)ethoxy]phenylamino]-1H-1,2,4-triazole] is less than 1000 nM; for `CC(C)(C)c1ccc(C(=O)n2nc(Nc3ccc(OCCN4CCCCCC4)cc3)nc2N)cc1` [compound 320, 5-amino-1-(4-(tert-butyl)phenyl)carbonyl-3-[4-[2-(azepan-1-yl)ethoxy]phenylamino]-1H-1,2,4-triazole] it is less than 1000 nM; for `CC(C)Oc1ccc(C(=O)n2nc(Nc3ccc(OCCN4CCCCCC4)cc3)nc2N)cc1` [compound 321, 5-amino-1-(4-(iso-propoxy)phenyl)carbonyl-3-[4-[2-(azepan-1-yl)ethoxy]phenylamino]-1H-1,2,4-triazole] it is less than 1000 nM.
Same read-out and setting: the figure for `CC(C)(C)Oc1ccc(C(=O)n2nc(Nc3ccc(OCCN4CCCCCC4)cc3)nc2N)cc1` [compound 322, 5-amino-1-(4-(tert-butoxy)phenyl)carbonyl-3-[4-[2-(azepan-1-yl)ethoxy]phenylamino]-1H-1,2,4-triazole] is less than 1000 nM; for `Nc1nc(Nc2ccc(OCCN3CCCCCC3)cc2)nn1C(=O)c1ccc(-c2csnn2)cc1` [compound 324, 5-amino-1-(4-(1,2,3-thiadiazol-4-yl)phenyl)carbonyl-3-[4-[2-(azepan-1-yl)ethoxy]phenylamino]-1H-1,2,4-triazole] it is less than 1000 nM.

In general, IC50 refers to the concentration needed to halve the response being measured.

Values taken from patent publication US8389557B2, “Triazole derivatives useful as Axl inhibitors” (Rigel Pharmaceuticals, Inc., priority 2005, dated 2013).
